From publication PMC10704437, “Sterol-activated amyloid beta fibril formation” (The Journal of Biological Chemistry, 2023)
Like-named read-outs stand apart in the source and are kept apart here.

How the values were obtained:
Aβ42 = target: T1, Aβ42 (Homo sapiens, UniProt P05067); test: Sterol binding to Aβ42, pre-steady-state stopped-flow fluorescence; conditions: for kon: calculated by dividing koff by Kd; for koff: determined in DHE displacement studies, stopped-flow, 25 °C
T1 construct: Small red spheres mark the Aβ42 peptide C-terminal residue, A42; purchased Sigma-Aldrich Corp
Protocol: To establish the rates at which Aβ42•ligand complexes form and dissociate, the rate constants governing the binding reactions were determined. DHE binding was monitored in real time using a stopped-flow fluorimeter via binding-induced changes in DHE fluorescence. The reactions are pseudo first order in [ligand] and kobs was obtained by least-squares fitting progress curves to a single-exponential equation ([44], [45]). kobs values were determined (in triplicate) at a series of Aβ42 concentrations and the averaged values are plotted versus [Aβ42] in Figure 2B. kon and koff are given by the slope and intercept of the kobs-versus-[Aβ42] plot obtained by linear least-square fitting ([44], [45]). […] The rate constants are compiled in Table 1.
Figure 2 Sterol binding to Aβ42—pre-steady state studies.A, DHE binding. Reactions were monitored via binding induced changes in DHE fluorescence using a stopped-flow fluorimeter (λex = 325, λem > 400 nm). Fluorescence intensity, I, is reported relative to the intensity in the absence of ligand, Io. […] C was rapidly mixed (1:1, v/v) with a solution identical except that Aβ42 was replaced by DHE (40 nM, 2.7 × Kd). The bindingreaction curve shown is the average of five independent progress curves. The averaged curve was a least-squares fit to a single-exponential equation and the resulting best fit (indicated by the red line) yielded kobs. B, DHE kon and koff. kobs values obtained as in Panel A were determined in triplicate at varying Aβ42 concentrations and the averaged values are shown plotted versus [Aβ42]. kon and koff are given by the slope and intercept of a linear least-squares fit of the kobsversus [Aβ42] plot. C and D, CH and CS displacement reactions.
Pre-steady-state binding of sterols to Aβ42 was monitored via the binding-induced change in DHE fluorescence (λex = 325, λem > 400 nm) using an Applied Photophysics SX20 stopped-flow fluorimeter.
Three progress curves (each an average of five independently obtained curves) were collected at five separate Aꞵ42 concentrations. The observed rate constant (kobs) at a given [Aβ42] was obtained by fitting the average of the three curves to a single-exponential equation using Pro-K software ([75]). kon and koff were obtained from the slopes and intercepts predicted by linear least-squares analysis of kobs versus [Aβ42] plots.
C. […] Progress curves were determined in triplicate and koff was obtained by least-squares fitting the averaged curves to a single-exponential equation using Pro-K.

Aβ42 monomer = target: T2, Aβ42 monomer (Homo sapiens, UniProt P05067); test: Sterol binding to Aβ42, equilibrium DHE fluorescence titrations
T2 construct: Small red spheres mark the Aβ42 peptide C-terminal residue, A42; purchased Sigma-Aldrich Corp
Protocol: CH ([27]) and CS ([28]) increase the rate of Aβ aggregation and CH is thought to stabilize fibrils ([29]); yet, the affinities of CH and its metabolites for the Aβ peptide monomer have not been determined. Here, CH and CS affinities for the Aβ42 monomer are established using dehydroergosterol (DHE)—a fluorescent CH analog ([30]) used as a competitive probe to determine CH and CS affinities. Aβ42 monomers were prepared as previously described ([31]) (see Methods). […] Under this condition, Aβ42 essentially quantitatively binds DHE until its concentration exceeds that of DHE, which results in a breakpoint in the titration curve that yields the stoichiometry. The arrow seen descending from the breakpoint indicates a stoichiometry of 1:1, which agrees well with the ∼1:1 CH-metabolite:Aβ stoichiometry estimated from analysis of senile plaques micro-dissected from AD-patient brain tissue ([15]).
Figure 1 Sterol binding to Aβ42at equilibrium.A, DHE affinity for monomeric Aβ4_2. […] Binding was detected via the binding-induced 4.4 (±0.2)-fold increase in DHE fluorescence (λex = 325 nm, λem= 375 nm). Fluorescence intensity, I, is plotted relative to the intensity at zero titrant, I0. Titrations were performed independently in triplicate and the line passing through the data is the least-squares fit to a single-binding-site model. B, Aβ42:DHE stoichiometry. […] C. DHE fluorescence (λex = 325 nm, λem = 375 nm) is plotted versus [Aβ42]/[DHE]. The line descending from the titration breakpoint indicates a stoichiometry of 1:1. C and D, CH and CS affinities. Affinities were determined by competitive binding versus DHE. […] C, was titrated with CH (5.0–500 nM, 0.05–5 × Kd) or CS (5.0–500 nM, 0.15–[…] × Kd). Binding was monitored via the decrease in DHE fluorescence (λex = 325, λem = 375) caused by DHE displacement from Aβ42. Controls ensured that <2.0% of Aβ42 oligomerized during the measurement. Titrations were performed in triplicate and averaged. The solid lines through the data represent least-squares fits to a competitive single-binding-site model. C and D, insets highlight the behavior of the titration over ligand concentrations that span their reported CMCs (indicated by arrows). […]
DHE/Aβ42 binding interactions were monitored via the binding-induced 4.4-fold change in DHE fluorescence (λex = 325 nm, λem= 375 nm). […]
The affinities of CH and CS for Aβ42 were determined in competitive binding studies versus DHE. Binding was detected via the fluorescence decrease (λex= 325 nm, λem = 375 nm) caused by DHE displacement. […] Imax = (fraction DHE-bound to peptide at zero competitive ligands)/4.4 — the fold fluorescence change associated with DHE dissociation, see Figure 1A.

T1 sequence (P05067 672-713 limits assumed): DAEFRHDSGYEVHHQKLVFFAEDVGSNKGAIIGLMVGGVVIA
T2 sequence (P05067 672-713 limits assumed): as above

Kd (Aβ42; ratio of rate constants, read-out: koff/kon) | Kd (Aβ42 monomer; determined in DHE competition studies, DHE 10 nM, Aβ42 20 nM, K2PO4 50 mM, pH 7.4, 25 °C, read-out: Kd) | SMILES | kon (Aβ42) | koff (Aβ42) | Kd (Aβ42) | Kd (Aβ42 monomer) | enhanced affinity of CS over CH for Aβ42 (Aβ42 monomer; ratio of Kd values)
120 nM | 120 nM | CC(C)CCC[C@@H](C)[C@H]1CC[C@H]2[C@@H]3CC=C4C[C@@H](O)CC[C@]4(C)[C@H]3CC[C@]12C [CH, cholesterol] | 2.1e+07 M⁻¹ s⁻¹ | 2.5 s⁻¹ | – | – | –
– | – | CC(C)CCC[C@@H](C)[C@H]1CC[C@H]2[C@@H]3CC=C4C[C@@H](OS(=O)(=O)O)CC[C@]4(C)[C@H]3CC[C@]12C [CS, cholesterol 3-sulfate] | 2.4e+07 M⁻¹ s⁻¹ | 0.88 s⁻¹ | 36 nM | 36 nM | 3.4 fold
